Tests used:
MDA-MB-435 = experiment: NCI-60 anticancer screen (SRB; single dose and five doses); details: Homo sapiens
786-0 = experiment: as above; details: Homo sapiens
SW-620 = experiment: as above; details: Homo sapiens
HL-60(TB) = experiment: as above; details: Homo sapiens
HT29 = experiment: as above; details: Homo sapiens
LOX IMVI = experiment: as above; details: Homo sapiens
IGROV1 = experiment: as above; details: Homo sapiens
T-47D = experiment: as above; details: Homo sapiens, T47D
SR = experiment: as above; details: Homo sapiens
OVCAR-3 = experiment: cells; details: Homo sapiens
SF-268 = experiment: NCI-60 anticancer screen (SRB; single dose and five doses); details: Homo sapiens
OVCAR-4 = experiment: as above; details: Homo sapiens
MCF7 = experiment: as above; details: Homo sapiens
U251 = experiment: as above; details: Homo sapiens
K-562 = experiment: as above; details: Homo sapiens
CAKI-1 = experiment: as above; details: Homo sapiens
KM12 = experiment: as above; details: Homo sapiens
MDA-MB-231/ATCC = experiment: as above; details: Homo sapiens
HS 578T = experiment: as above; details: Homo sapiens
OVCAR-5 = experiment: as above; details: Homo sapiens
SK-MEL-5 = experiment: as above; details: Homo sapiens
EKVX = experiment: as above; details: Homo sapiens
SK-MEL-2 = experiment: as above; details: Homo sapiens
SN12C = experiment: as above; details: Homo sapiens
DU-145 = experiment: as above; details: Homo sapiens
UACC-62 = experiment: as above; details: Homo sapiens
UACC-257 = experiment: as above; details: Homo sapiens
UO-31 = experiment: as above; details: Homo sapiens
SNB-75 = experiment: as above; details: Homo sapiens, SNB-75, 48 h, read-out: Growth Percentage
[1] = 48 h, read-out: Growth Percentage

Compound: Cc1[nH]c(=S)sc1C(=O)/C=C/c1ccc([N+](=O)[O-])cc1 [2i, (E)-1-(4-Methyl-2-Thioxo-2,3-Dihydrothiazol-5-yl)-3-(4-Nitrophenyl)Prop-2-En-1-One]
- GI50 (MDA-MB-435; MDA-MB-435): 7.39 µM
- activity at 10 µM (MDA-MB-435; MDA-MB-435, 48 h, read-out: Growth Percentage): 3.76%
- CC50 (MDA-MB-435; MDA-MB-435, read-out: LC50): 50.9 µM
- IC (TGI) (MDA-MB-435; MDA-MB-435, read-out: TGI): 21.1 µM
- GI50 (786-0; 786-0): 3.99 µM
- activity at 10 µM (786-0; 786-0, 48 h, read-out: Growth Percentage): 25.6%
- CC50 (786-0; 786-0, read-out: LC50): 54 µM
- IC (TGI) (786-0; 786-0, read-out: TGI): 17.6 µM
- GI50 (SW-620; SW-620): 3.59 µM
- activity at 10 µM (SW-620; SW-620, 48 h, read-out: Growth Percentage): -44.8%
- CC50 (SW-620; SW-620, read-out: LC50): 44.2 µM
- IC (TGI) (SW-620; SW-620, read-out: TGI): 13.9 µM
- GI50 (HL-60(TB); HL-60): 3.05 µM
- activity at 10 µM (HL-60(TB); HL-60, 48 h, read-out: Growth Percentage): -5.39%
- CC50 (HL-60(TB); HL-60, read-out: LC50): > 100 µM
- IC (TGI) (HL-60(TB); HL-60, read-out: TGI): 16.9 µM
- GI50 (HT29; HT-29): 10.7 µM
- activity at 10 µM (HT29; HT-29, 48 h, read-out: Growth Percentage): 62.8%
- CC50 (HT29; HT-29, read-out: LC50): 68.7 µM
- IC (TGI) (HT29; HT-29, read-out: TGI): 27.1 µM
- GI50 (LOX IMVI): 1.85 µM
- activity at 10 µM (LOX IMVI; [1]): -86.2%
- CC50 (LOX IMVI; read-out: LC50): 8.91 µM
- IC (TGI) (LOX IMVI; read-out: TGI): 4.06 µM
- GI50 (IGROV1; IGROV-1): 4.43 µM
- activity at 10 µM (IGROV1; IGROV-1, 48 h, read-out: Growth Percentage): 16.1%
- CC50 (IGROV1; IGROV-1, read-out: LC50): 50.8 µM
- IC (TGI) (IGROV1; IGROV-1, read-out: TGI): 14.9 µM
- GI50 (T-47D): 4.96 µM
- activity at 10 µM (T-47D; [1]): 44.3%
- CC50 (T-47D; read-out: LC50): > 100 µM
- IC (TGI) (T-47D; read-out: TGI): 25.7 µM
- GI50 (SR): 2.86 µM
- activity at 10 µM (SR; [1]): -4.81%
- CC50 (SR; read-out: LC50): > 100 µM
- IC (TGI) (SR; read-out: TGI): > 100 µM
- GI50 (OVCAR-3; OVCAR-3): 2.22 µM
- activity at 10 µM (OVCAR-3; OVCAR-3, 48 h, read-out: Growth Percentage): -6%
- CC50 (OVCAR-3; OVCAR-3, read-out: LC50): 16.6 µM
- IC (TGI) (OVCAR-3; OVCAR-3, read-out: TGI): 5.28 µM
- GI50 (SF-268; SF-268): 15.6 µM
- activity at 10 µM (SF-268; SF-268, 48 h, read-out: Growth Percentage): 47.4%
- CC50 (SF-268; SF-268, read-out: LC50): 67.3 µM
- IC (TGI) (SF-268; SF-268, read-out: TGI): 32.4 µM
- GI50 (OVCAR-4; OVCAR-4): 14.9 µM
- activity at 10 µM (OVCAR-4; OVCAR-4, 48 h, read-out: Growth Percentage): 49.2%
- CC50 (OVCAR-4; OVCAR-4, read-out: LC50): 53.8 µM
- IC (TGI) (OVCAR-4; OVCAR-4, read-out: TGI): 28.3 µM
- GI50 (MCF7; MCF7): 2.67 µM
- activity at 10 µM (MCF7; MCF7, 48 h, read-out: Growth Percentage): 5.51%
- CC50 (MCF7; MCF7, read-out: LC50): 51.3 µM
- IC (TGI) (MCF7; MCF7, read-out: TGI): 11.7 µM
- GI50 (U251; U-251): 4.1 µM
- activity at 10 µM (U251; U-251, 48 h, read-out: Growth Percentage): 13.7%
- CC50 (U251; U-251, read-out: LC50): 53 µM
- IC (TGI) (U251; U-251, read-out: TGI): 17 µM
- GI50 (K-562; K562): 3.5 µM
- activity at 10 µM (K-562; K562, 48 h, read-out: Growth Percentage): 12.3%
- CC50 (K-562; K562, read-out: LC50): > 100 µM
- IC (TGI) (K-562; K562, read-out: TGI): > 100 µM
- GI50 (CAKI-1; CAKI-1): 13.9 µM
- activity at 10 µM (CAKI-1; CAKI-1, 48 h, read-out: Growth Percentage): 31.1%
- CC50 (CAKI-1; CAKI-1, read-out: LC50): 52.7 µM
- IC (TGI) (CAKI-1; CAKI-1, read-out: TGI): 27.1 µM
- GI50 (KM12; KM12): 3.8 µM
- activity at 10 µM (KM12; KM12, 48 h, read-out: Growth Percentage): -72.5%
- CC50 (KM12; KM12, read-out: LC50): 40 µM
- IC (TGI) (KM12; KM12, read-out: TGI): 13.6 µM
- GI50 (MDA-MB-231/ATCC; MDA-MB-231): 12 µM
- activity at 10 µM (MDA-MB-231/ATCC; MDA-MB-231, 48 h, read-out: Growth Percentage): 10.8%
- CC50 (MDA-MB-231/ATCC; MDA-MB-231, read-out: LC50): 51.5 µM
- IC (TGI) (MDA-MB-231/ATCC; MDA-MB-231, read-out: TGI): 24.8 µM
- GI50 (HS 578T): 13 µM
- activity at 10 µM (HS 578T; [1]): 68.1%
- CC50 (HS 578T; read-out: LC50): 80.9 µM
- IC (TGI) (HS 578T; read-out: TGI): 32.4 µM
- GI50 (OVCAR-5; OVCAR-5): 17.8 µM
- activity at 10 µM (OVCAR-5; OVCAR-5, 48 h, read-out: Growth Percentage): 110%
- CC50 (OVCAR-5; OVCAR-5, read-out: LC50): 58.2 µM
- IC (TGI) (OVCAR-5; OVCAR-5, read-out: TGI): 32.2 µM
- GI50 (SK-MEL-5; SK-MEL-5): 12 µM
- activity at 10 µM (SK-MEL-5; SK-MEL-5, 48 h, read-out: Growth Percentage): 53.8%
- CC50 (SK-MEL-5; SK-MEL-5, read-out: LC50): 49.7 µM
- IC (TGI) (SK-MEL-5; SK-MEL-5, read-out: TGI): 24.4 µM
- GI50 (EKVX): 16.4 µM
- activity at 10 µM (EKVX; [1]): 74.7%
- CC50 (EKVX; read-out: LC50): 58.1 µM
- IC (TGI) (EKVX; read-out: TGI): 30.9 µM
- GI50 (SK-MEL-2; SK-MEL-2): 13.6 µM
- activity at 10 µM (SK-MEL-2; SK-MEL-2, 48 h, read-out: Growth Percentage): 49.5%
- CC50 (SK-MEL-2; SK-MEL-2, read-out: LC50): 62 µM
- IC (TGI) (SK-MEL-2; SK-MEL-2, read-out: TGI): 29 µM
- GI50 (SN12C): 6.06 µM
- activity at 10 µM (SN12C; [1]): 18.6%
- CC50 (SN12C; read-out: LC50): 44.7 µM
- IC (TGI) (SN12C; read-out: TGI): 19.3 µM
- GI50 (DU-145; DU-145): 3.41 µM
- activity at 10 µM (DU-145; DU-145, 48 h, read-out: Growth Percentage): 21.4%
- CC50 (DU-145; DU-145, read-out: LC50): 34.5 µM
- IC (TGI) (DU-145; DU-145, read-out: TGI): 11 µM
- GI50 (UACC-62; UACC-62): 10.5 µM
- activity at 10 µM (UACC-62; UACC-62, 48 h, read-out: Growth Percentage): 47.5%
- IC (TGI) (UACC-62; UACC-62, read-out: TGI): 22.4 µM
- GI50 (UACC-257; UACC-257): 15.1 µM
- activity at 10 µM (UACC-257; UACC-257, 48 h, read-out: Growth Percentage): 63.3%
- CC50 (UACC-257; UACC-257, read-out: LC50): 61.4 µM
- IC (TGI) (UACC-257; UACC-257, read-out: TGI): 30.4 µM
- GI50 (UO-31; UO-31): 4.86 µM
- activity at 10 µM (UO-31; UO-31, 48 h, read-out: Growth Percentage): -41.3%
- IC (TGI) (UO-31; UO-31, read-out: TGI): 18.8 µM
- activity at 10 µM (SNB-75): 36%
